Test results from patent US12559492B2, “BRAF degraders” (C4 Therapeutics, Inc., priority 2020, dated 2026).

Molecular target: BRAF^V600E protein (Homo sapiens, UniProt P15056, V600E)
Test: HiBiT cellular BRAF V600E degradation assay
Format: cell-based
Settings: 24 h incubation; for DC50: A375.10 cells (HiBiT tag knocked in at N-terminal of BRAF V600E), concentration at which 50% of total cellular BRAF V600E is degraded; for Emax: A375.10 cells, Emax = amount of residual protein remaining in the cell after compound treatment, read-out: HiBit 24 h Emax
Description: DMEM no-phenol red medium supplemented with L-glutamine was purchased from (Corning). Fetal bovine serum (FBS) was purchased from Gibco (Grand Island, NY, USA). Nano-Glo® HiBiT Lytic Assay Buffer & Reagents were purchased from Promega (Madison, WI, USA). […] Cell culture flasks and 384-well black flat-bottom polystyrene TC-treated microplates were acquired from Corning (Corning, NY, USA).
HiBiT Cellular BRAFv^600E Degradation Assay
Prior to the assay, the A375.10 cell line is maintained in DMEM no-phenol red medium supplemented with 10% fetal bovine serum (FBS). […] Briefly, test compounds were added to the 384-well plate from a top concentration of 10 μM with 11 half log dilutions of compound, plated in duplicate. Then, 30 uL of a suspension of A375.10 cell lines was dispensed into columns 1-24 of the 384-well plates at a cell density of 7500 cells per well. The plates were kept at 37° C. with 5% CO2 for the duration of the assay (6 or 24 hr). After the desired incubation time with compound, 30 uL of Nano-Glo® HiBiT Lytic Buffer containing LgBiT protein (diluted 1:100) and luminescence substrate (diluted 1:50) were added to the cells in columns 1-23 of the assay plate. The plate was the incubated for 30 min on the bench at room temperature. Finally, HiBiT luminescence signal was acquired on EnVision™ Multilabel Reader (PerkinElmer, Santa Clara, CA, USA).
Quantification of luminescence responses measured in the presence of compound were normalized to a high signal/no degradation control (untreated cells+lytic detection reagent) and a low signal/full degradation control (untreated cells, no lytic detection reagent). Data were analyzed with a 4-parameter logistic fit to generate sigmoidal dose-response curves. […] The Emax, or maximum effect of each compound, represents the amount of residual protein remaining in the cell following compound treatment.

BRAF^V600E protein, sequence (P15056 whole entry V600E): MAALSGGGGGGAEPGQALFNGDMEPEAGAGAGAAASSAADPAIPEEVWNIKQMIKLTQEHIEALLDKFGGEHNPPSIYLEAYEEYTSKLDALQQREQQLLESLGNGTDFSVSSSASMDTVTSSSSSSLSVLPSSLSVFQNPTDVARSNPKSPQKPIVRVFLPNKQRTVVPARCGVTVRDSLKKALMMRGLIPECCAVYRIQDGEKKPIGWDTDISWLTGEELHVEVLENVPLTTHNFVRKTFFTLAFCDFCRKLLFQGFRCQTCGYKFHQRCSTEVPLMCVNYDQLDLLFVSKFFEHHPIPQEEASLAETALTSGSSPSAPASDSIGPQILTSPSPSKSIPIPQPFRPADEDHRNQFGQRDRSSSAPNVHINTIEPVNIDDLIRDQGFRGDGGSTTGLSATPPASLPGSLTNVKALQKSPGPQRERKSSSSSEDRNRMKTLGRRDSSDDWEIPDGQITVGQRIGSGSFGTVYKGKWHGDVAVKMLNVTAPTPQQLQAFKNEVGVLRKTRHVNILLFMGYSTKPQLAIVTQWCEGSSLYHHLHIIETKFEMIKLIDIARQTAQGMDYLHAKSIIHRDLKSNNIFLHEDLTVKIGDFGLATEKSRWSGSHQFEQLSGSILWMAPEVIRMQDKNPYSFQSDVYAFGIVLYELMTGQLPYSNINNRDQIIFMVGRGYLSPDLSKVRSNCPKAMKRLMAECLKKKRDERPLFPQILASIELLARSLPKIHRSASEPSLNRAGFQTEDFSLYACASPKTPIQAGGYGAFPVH

SMILES	DC50	Emax
CCN(C)S(=O)(=O)Nc1ccc(F)c(C(=O)c2c[nH]c3ncc(-c4cnc(N5CCN(C(=O)CN6CCC(c7ccc(NC8CCC(=O)NC8=O)c(F)c7)CC6)CC5)nc4)cc23)c1F (stereo not drawn) [Example 29, 5-[2-[4-[2-[4-[4-[(2,6-dioxo-3-piperidyl)amino]-3-fluoro-phenyl]-1-piperidyl]acetyl]piperazin-1-yl]pyrimidin-5-yl]-3-[3-[[ethyl(methyl)sulfamoyl]amino]-2,6-difluoro-benzoyl]-1H-pyrrolo[2,3-b]pyridine]	2.76 nM	7.67%
CCN(C)S(=O)(=O)Nc1ccc(F)c(C(=O)c2c[nH]c3ncc(-c4cnc(N5CCN(C(=O)CN6CCC(c7ccc(NC8CCC(=O)NC8=O)cc7)C(F)(F)C6)CC5)nc4)cc23)c1F (stereo not drawn) [Example 30, 5-[2-[4-[2-[4-[4-[(2,6-dioxo-3-piperidyl)amino]phenyl]-3,3-difluoro-1-piperidyl]acetyl]piperazin-1-yl]pyrimidin-5-yl]-3-[3-[[ethyl(methyl)sulfamoyl]amino]-2,6-difluoro-benzoyl]-1H-pyrrolo[2,3-b]pyridine]	4.27 nM	7.84%
CCN(C)S(=O)(=O)Nc1ccc(F)c(C(=O)c2c[nH]c3ncc(-c4cnc(N5CCN(C(=O)CC6CCN(c7ccc(NC8CCC(=O)NC8=O)cc7)CC6)CC5)nc4)cc23)c1F (stereo not drawn) [Example 31, 5-[2-[4-[2-[1-[4-[(2,6-dioxo-3-piperidyl)amino]phenyl]-4-piperidyl]acetyl]piperazin-1-yl]pyrimidin-5-yl]-3-[3-[[ethyl(methyl)sulfamoyl]amino]-2,6-difluoro-benzoyl]-1H-pyrrolo[2,3-b]pyridine]	30 nM	21.2%
CCN(C)S(=O)(=O)Nc1ccc(F)c(C(=O)c2c[nH]c3ncc(-c4cnc(N5CCN(C(=O)CN6CCC(c7ccc(CN8CCC(=O)NC8=O)cc7)CC6)CC5)nc4)cc23)c1F [Example 32, 5-[2-[4-[2-[4-[4-[(2,4-dioxohexahydropyrimidin-1-yl)methyl]phenyl]-1-piperidyl]acetyl]piperazin-1-yl]pyrimidin-5-yl]-3-[3-[[ethyl(methyl)sulfamoyl]amino]-2,6-difluoro-benzoyl]-1H-pyrrolo[2,3-b]pyridine]	35 nM	10.6%
CCN(C)S(=O)(=O)Nc1ccc(F)c(C(=O)c2c[nH]c3ncc(-c4cnc(N5CCN(C(=O)CN6CCC(c7ccc8c(c7)n(C)c(=O)n8C7CCC(=O)NC7=O)CC6)CC5)nc4)cc23)c1F (stereo not drawn) [Example 33, 1-(2,6-dioxo-3-piperidyl)-5-[1-[2-[4-[5-[3-[3-[[ethyl(methyl)sulfamoyl]amino]-2,6-difluoro-benzoyl]-1H-pyrrolo[2,3-b]pyridin-5-yl]pyrimidin-2-yl]piperazin-1-yl]-2-oxo-ethyl]-4-piperidyl]-3-methyl-2-oxo-benzimidazole]	2.51 nM	19.2%
CCN(C)S(=O)(=O)Nc1ccc(F)c(C(=O)c2c[nH]c3ncc(-c4cnc(N5CCN(C(=O)CN6CCC(c7ccc8c(N9CCC(=O)NC9=O)nn(C)c8c7)CC6)CC5)nc4)cc23)c1F [Example 34, 3-(2,4-dioxohexahydropyrimidin-1-yl)-6-[1-[2-[4-[5-[3-[3-[[ethyl(methyl)sulfamoyl]amino]-2,6-difluoro-benzoyl]-1H-pyrrolo[2,3-b]pyridin-5-yl]pyrimidin-2-yl]piperazin-1-yl]-2-oxo-ethyl]-4-piperidyl]-1-methyl-indazole]	2.52 nM	8.14%
CCN(C)S(=O)(=O)Nc1ccc(F)c(C(=O)c2c[nH]c3ncc(-c4cnc(N5CCN(C(=O)CN6CCC(N7CCN(C8CCC(=O)NC8=O)C(=O)C7)CC6)CC5)nc4)cc23)c1F (stereo not drawn) [Example 37, 5-[2-[4-[2-[4-[4-(2,6-dioxo-3-piperidyl)-3-oxo-piperazin-1-yl]-1-piperidyl]acetyl]piperazin-1-yl]pyrimidin-5-yl]-3-[3-[[ethyl(methyl)sulfamoyl]amino]-2,6-difluoro-benzoyl]-1H-pyrrolo[2,3-b]pyridine]	17.2 nM	9.14%
CCN(C)S(=O)(=O)Nc1ccc(F)c(C(=O)c2c[nH]c3ncc(-c4cnc(N5CCN(C(=O)CC6(O)CCN(c7ccc(NC8CCC(=O)NC8=O)cc7)CC6)CC5)nc4)cc23)c1F (stereo not drawn) [Example 38, 5-[2-[4-[2-[1-[4-[(2,6-dioxo-3-piperidyl)amino]phenyl]-4-hydroxy-4-piperidyl]acetyl]piperazin-1-yl]pyrimidin-5-yl]-3-[3-[[ethyl(methyl)sulfamoyl]amino]-2,6-difluoro-benzoyl]-1H-pyrrolo[2,3-b]pyridine]	4.44 nM	13.4%
CCN(C)S(=O)(=O)Nc1ccc(F)c(C(=O)c2c[nH]c3ncc(-c4cnc(N5CCN(C(=O)CN6CCC(c7ccc(NC8CCC(=O)NC8=O)cc7C(F)F)CC6)CC5)nc4)cc23)c1F (stereo not drawn) [Example 39, 5-[2-[4-[2-[4-[2-(difluoromethyl)-4-[(2,6-dioxo-3-piperidyl)amino]phenyl]-1-piperidyl]acetyl]piperazin-1-yl]pyrimidin-5-yl]-3-[3-[[ethyl(methyl)sulfamoyl]amino]-2,6-difluoro-benzoyl]-1H-pyrrolo[2,3-b]pyridine]	10.2 nM	8.74%
CCN(C)S(=O)(=O)Nc1ccc(F)c(C(=O)c2c[nH]c3ncc(-c4cnc(N5CCN(C(=O)CN6CCC(c7ccc(NC8CCC(=O)NC8=O)cc7C#N)CC6)CC5)nc4)cc23)c1F (stereo not drawn) [Example 40, 5-[2-[4-[2-[4-[2-cyano-4-[(2,6-dioxo-3-piperidyl)amino]phenyl]-1-piperidyl]acetyl]piperazin-1-yl]pyrimidin-5-yl]-3-[3-[[ethyl(methyl)sulfamoyl]amino]-2,6-difluoro-benzoyl]-1H-pyrrolo[2,3-b]pyridine]	11.7 nM	8.42%
CCN(C)S(=O)(=O)Nc1ccc(F)c(C(=O)c2c[nH]c3ncc(-c4cnc(N5CCN(C(=O)CN6CCC(c7c(F)cc(OC8CCC(=O)NC8=O)cc7F)CC6)CC5)nc4)cc23)c1F (stereo not drawn) [Example 41, 5-[2-[4-[2-[4-[4-[(2,6-dioxo-3-piperidyl)oxy]-2,6-difluoro-phenyl]-1-piperidyl]acetyl]piperazin-1-yl]pyrimidin-5-yl]-3-[3-[[ethyl(methyl)sulfamoyl]amino]-2,6-difluoro-benzoyl]-1H-pyrrolo[2,3-b]pyridine]	24.5 nM	9.48%
CCN(C)S(=O)(=O)Nc1ccc(F)c(C(=O)c2c[nH]c3ncc(-c4cnc(N5CCN(C(=O)CC6CCN(c7ccc(NC8CCC(=O)NC8=O)cc7F)CC6)CC5)nc4)cc23)c1F (stereo not drawn) [Example 42, 5-[2-[4-[2-[1-[4-[(2,6-dioxo-3-piperidyl)amino]-2-fluoro-phenyl]-4-piperidyl]acetyl]piperazin-1-yl]pyrimidin-5-yl]-3-[3-[[ethyl(methyl)sulfamoyl]amino]-2,6-difluoro-benzoyl]-1H-pyrrolo[2,3-b]pyridine]	3.41 nM	11.5%
CCN(C)S(=O)(=O)Nc1ccc(F)c(C(=O)c2c[nH]c3ncc(-c4cnc(N5CCN(C(=O)CC6CCN(c7ccc8c(c7)n(C)c(=O)n8C7CCC(=O)NC7=O)CC6)CC5)nc4)cc23)c1F (stereo not drawn) [Example 43, 1-(2,6-dioxo-3-piperidyl)-5-[4-[2-[4-[5-[3-[3-[[ethyl(methyl)sulfamoyl]amino]-2,6-difluoro-benzoyl]-1H-pyrrolo[2,3-b]pyridin-5-yl]pyrimidin-2-yl]piperazin-1-yl]-2-oxo-ethyl]-1-piperidyl]-3-methyl-2-oxo-benzimidazole]	22.1 nM	35.2%
CCN(C)S(=O)(=O)Nc1ccc(F)c(C(=O)c2c[nH]c3ncc(-c4cnc(N5CCN(C(=O)CN6CCC(c7ccc(N8CCC(=O)NC8=O)cc7F)CC6)CC5)nc4)cc23)c1F [Example 44, 5-[2-[4-[2-[4-[4-(2,4-dioxohexahydropyrimidin-1-yl)-2-fluoro-phenyl]-1-piperidyl]acetyl]piperazin-1-yl]pyrimidin-5-yl]-3-[3-[[ethyl(methyl)sulfamoyl]amino]-2,6-difluoro-benzoyl]-1H-pyrrolo[2,3-b]pyridine]	41.3 nM	13.2%
CCN(C)S(=O)(=O)Nc1ccc(F)c(C(=O)c2c[nH]c3ncc(-c4cnc(N5CCN(C(=O)CC6CCN(c7c(F)cc(NC8CCC(=O)NC8=O)cc7F)CC6)CC5)nc4)cc23)c1F (stereo not drawn) [Example 45, 5-[2-[4-[2-[1-[4-[(2,6-dioxo-3-piperidyl)amino]-2,6-difluoro-phenyl]-4-piperidyl]acetyl]piperazin-1-yl]pyrimidin-5-yl]-3-[3-[[ethyl(methyl)sulfamoyl]amino]-2,6-difluoro-benzoyl]-1H-pyrrolo[2,3-b]pyridine]	23.6 nM	14.2%
